From ChEMBL document CHEMBL1201862, “PubChem BioAssay data set” (2004)
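1) Cells in 96-well plates. 2) Compound, 48 h, 5 concentrations. 3) Linear interpolation between surrounding doses. 4) Unreached endpoint = highest concentration. GI50 marks 50% less growth.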 Calls of active or inactive are those of the source. No stated cut-off is given here; in the data, active = GI50 up to about 1.1 µM and inactive = higher.

How the values were obtained:
Assay in all cases: NCI anticancer screen, dose series, 48 h
UO-31 = system: UO-31
NCI/ADR-RES = system: NCI/ADR-RES
OVCAR-3 = system: OVCAR-3
RXF 393 = system: RXF 393
EKVX = system: EKVX
OVCAR-8 = system: OVCAR-8
CCRF-CEM = system: CCRF-CEM
SK-MEL-5 = system: SK-MEL-5
OVCAR-5 = system: OVCAR-5
HL-60 = system: HL-60
HT-29 = system: HT-29
COLO 205 = system: COLO 205
Hs-578T = system: Hs-578T
RPMI-8226 = system: RPMI-8226
A549 = system: A549
SF-295 = system: SF-295
NCI-H226 = system: NCI-H226
OVCAR-4 = system: OVCAR-4
MCF7 = system: MCF7
SK-MEL-28 = system: SK-MEL-28
SN12C = system: SN12C
U-251 = system: U-251
IGROV-1 = system: IGROV-1
UACC-257 = system: UACC-257
A498 = system: A498
HCT-116 = system: HCT-116
LOX IMVI = system: LOX IMVI
Malme-3M = system: Malme-3M
HCT-15 = system: HCT-15
K562 = system: K562
786-0 = system: 786-0
SW-620 = system: SW-620
SF-268 = system: SF-268
DU-145 = system: DU-145
T47D = system: T47D
SK-OV-3 = system: SK-OV-3
ACHN = system: ACHN
NCI-H522 = system: NCI-H522
SNB-75 = system: SNB-75
M14 = system: M14
KM12 = system: KM12
HOP-92 = system: HOP-92
HOP-62 = system: HOP-62
TK-10 = system: TK-10
MOLT-4 = system: MOLT-4
MDA-MB-231 = system: MDA-MB-231
SNB-19 = system: SNB-19
MDA-N = system: MDA-N
UACC-62 = system: UACC-62
MDA-MB-435 = system: MDA-MB-435
NCI-H460 = system: NCI-H460
HCC 2998 = system: HCC 2998
NCI-H23 = system: NCI-H23
PC-3 = system: PC-3
SF-539 = system: SF-539
BT-549 = system: BT-549
SR = system: SR
SK-MEL-2 = system: SK-MEL-2
CAKI-1 = system: CAKI-1

In the case of O=C(CNc1ccc(Cl)cc1Cl)Nn1c(-c2ccccc2)nc2ccccc2c1=O, the GI50 (UO-31) is reported as 22.4 µM (inactive), the GI50 (NCI/ADR-RES) is reported as 20.3 µM (inactive) and the GI50 (OVCAR-3) is reported as 17 µM (inactive). The GI50 (RXF 393) was 18.9 µM (inactive), the GI50 (EKVX) was 19.2 µM (inactive) and the GI50 (OVCAR-8) was 35 µM (inactive). For the same molecule, the GI50 (CCRF-CEM) was 2.9 µM (inactive), the GI50 (SK-MEL-5) was 5.94 µM (inactive) and the GI50 (OVCAR-5) was 23 µM (inactive). The GI50 (HL-60) was 20 µM (inactive), the GI50 (HT-29) was 16.1 µM (inactive) and the GI50 (COLO 205) was 11.1 µM (inactive). The GI50 (Hs-578T) was 23.9 µM (inactive), the GI50 (RPMI-8226) was 21.3 µM (inactive) and the GI50 (A549) was 30.5 µM (inactive). The GI50 (SF-295) was 14.9 µM (inactive), the GI50 (NCI-H226) was 33.8 µM (inactive) and the GI50 (OVCAR-4) was 13.9 µM (inactive). For the same molecule, the GI50 (MCF7) was 13.4 µM (inactive), the GI50 (SK-MEL-28) was 21.1 µM (inactive) and the GI50 (SN12C) was 16.1 µM (inactive). The GI50 (U-251) was > 10 µM (inactive), the GI50 (IGROV-1) was 15.2 µM (inactive) and the GI50 (UACC-257) was 21.6 µM (inactive). The GI50 (A498) was > 10 µM (inactive), the GI50 (HCT-116) was 16.7 µM (inactive) and the GI50 (LOX IMVI) was 9.95 µM (inactive). The GI50 (Malme-3M) was 18.2 µM (inactive), the GI50 (HCT-15) was 19.1 µM and the GI50 (K562) was 10.2 µM (inactive). For the same molecule, the GI50 (786-0) was 16.8 µM (inactive), the GI50 (SW-620) was 16.2 µM (inactive) and the GI50 (SF-268) was 3.86 µM (inactive). The GI50 (DU-145) was 14.5 µM (inactive), the GI50 (T47D) was 14.6 µM (inactive) and the GI50 (SK-OV-3) was 28.2 µM (inactive). For the same molecule, the GI50 (ACHN) was 17.6 µM (inactive), the GI50 (NCI-H522) was 12 µM (inactive) and the GI50 (SNB-75) was 15.3 µM (inactive). For the same molecule, the GI50 (M14) was 13.7 µM (inactive), the GI50 (KM12) was > 10 µM (inactive) and the GI50 (HOP-92) was 4.33 µM (inactive). For the same molecule, the GI50 (HOP-62) was > 10 µM (inactive), the GI50 (TK-10) was 19.5 µM (inactive) and the GI50 (MOLT-4) was 5.14 µM (inactive). For the same molecule, the GI50 (MDA-MB-231) was 14.8 µM (inactive), the GI50 (SNB-19) was 18.5 µM (inactive) and the GI50 (MDA-N) was 15.9 µM (inactive). For the same molecule, the GI50 (UACC-62) was 3.34 µM (inactive), the GI50 (MDA-MB-435) was 14.9 µM (inactive) and the GI50 (NCI-H460) was 15.7 µM (inactive). For the same molecule, the GI50 (HCC 2998) was 17.7 µM (inactive), the GI50 (NCI-H23) was 12.6 µM (inactive) and the GI50 (PC-3) was 14.9 µM (inactive). For the same molecule, the GI50 (SF-539) was 19.6 µM (inactive), the GI50 (BT-549) was 16.3 µM (inactive) and the GI50 (SR) was 13.9 µM (inactive).

O=S(=O)(c1ccc2ccccc2c1)N1CCN(S(=O)(=O)c2ccc3ccccc3c2)CC1 was tested, and the GI50 (UO-31) was > 100 µM (inactive), the GI50 (NCI/ADR-RES) was > 100 µM (inactive) and the GI50 (OVCAR-3) was 36 µM (inactive). The GI50 (RXF 393) was > 100 µM (inactive), the GI50 (EKVX) was > 100 µM (inactive) and the GI50 (OVCAR-8) was 93.1 µM (inactive). For the same molecule, the GI50 (CCRF-CEM) was > 100 µM (inactive), the GI50 (SK-MEL-5) was > 100 µM (inactive) and the GI50 (OVCAR-5) was > 100 µM (inactive). The GI50 (HL-60) was > 100 µM (inactive), the GI50 (HT-29) was > 100 µM (inactive) and the GI50 (COLO 205) was > 100 µM (inactive). For the same molecule, the GI50 (Hs-578T) was 31 µM (inactive), the GI50 (RPMI-8226) was > 100 µM (inactive) and the GI50 (A549) was > 100 µM (inactive). The GI50 (SF-295) was > 100 µM (inactive), the GI50 (NCI-H226) was > 100 µM (inactive) and the GI50 (OVCAR-4) was > 100 µM (inactive). For the same molecule, the GI50 (MCF7) was > 100 µM (inactive), the GI50 (SK-MEL-28) was > 100 µM (inactive) and the GI50 (SN12C) was > 100 µM (inactive). The GI50 (U-251) was > 100 µM (inactive), the GI50 (IGROV-1) was > 100 µM (inactive) and the GI50 (UACC-257) was > 100 µM (inactive). For the same molecule, the GI50 (SK-MEL-2) was > 100 µM (inactive), the GI50 (CAKI-1) was > 100 µM (inactive) and the GI50 (A498) was > 100 µM (inactive). For the same molecule, the GI50 (HCT-116) was > 100 µM (inactive), the GI50 (LOX IMVI) was > 100 µM (inactive) and the GI50 (Malme-3M) was > 100 µM (inactive). For the same molecule, the GI50 (HCT-15) was greater than 100 µM, the GI50 (K562) was > 100 µM (inactive) and the GI50 (786-0) was > 100 µM (inactive). For the same molecule, the GI50 (SW-620) was > 100 µM (inactive), the GI50 (SF-268) was > 100 µM (inactive) and the GI50 (DU-145) was > 100 µM (inactive). For the same molecule, the GI50 (T47D) was > 100 µM (inactive), the GI50 (SK-OV-3) was 51.3 µM (inactive) and the GI50 (ACHN) was > 100 µM (inactive). For the same molecule, the GI50 (NCI-H522) was > 100 µM (inactive), the GI50 (SNB-75) was 18.9 µM (inactive) and the GI50 (M14) was > 100 µM (inactive). The GI50 (KM12) was > 100 µM (inactive), the GI50 (HOP-92) was 34.6 µM (inactive) and the GI50 (HOP-62) was 33.5 µM (inactive). For the same molecule, the GI50 (TK-10) was > 100 µM (inactive), the GI50 (MDA-MB-231) was > 100 µM (inactive) and the GI50 (SNB-19) was 69.7 µM (inactive). The GI50 (MDA-N) was > 100 µM (inactive), the GI50 (UACC-62) was > 100 µM (inactive) and the GI50 (MDA-MB-435) was > 100 µM (inactive). The GI50 (NCI-H460) was > 100 µM (inactive), the GI50 (HCC 2998) was > 100 µM (inactive) and the GI50 (NCI-H23) was > 100 µM (inactive). The GI50 (PC-3) was > 100 µM (inactive), the GI50 (BT-549) was > 100 µM (inactive) and the GI50 (SR) was > 100 µM (inactive).
